Results as given in patent US10322108B2, “N-benzoate group substituted benzopyrroline-2-one derivative and use thereof” (BEIJING HANMI PHARMACEUTICAL CO., LTD., priority 2015, dated 2019).
pIC50: −log10 of the molar value.

Columns and labels:
Th17 cells = assay: Differentiation inhibition experiments on Th17 cells (IL-17A content in supernatant by ELISA); format: cell-based, C57 mouse; conditions: 1 μM compound; differentiation of mouse naïve CD4+ T cells to Th17, IL-17A ELISA; read-out: Inhibition Rate (1 μM)
Method: 5 μg/mL mouse CD3 antibody (purchased from BD) was coated on a 96-well plate (37° C., 2-6 hours) and stored for future use. C57 mouse lymph gland naïve CD4 positive T cells were separated using CD4+ T cell isolation kit II (purchased from MACS), and were inoculated to the coated 96-well plate at 5×10^5 cells/well/100 μL. The test sample was gradient diluted with RMPI-1640 culture medium (Gibco, 22440), and was made to be 4 times of the final concentration (starting from 1 μM, 10 times dilution, setting 6 drug concentrations). The diluted test sample was added at 50 μL/well to the test well inoculated with cells. To each of the positive and negative control wells was added 50 μL RMPI-1640 culture medium. To each of the test wells and the positive control wells was further added 50 μL mixed solution of activators (20 ug/mL mouse CD28 antibody (purchased from BD); 40 ug/mL mouse IL-4 antibody (purchased from BD); 40 ug/mL mouse IFNγ antibody (purchased from BD); 4 ng/mL mouse TGF-β1 (purchased from R&D); 200 ng/mL mouse IL-6 (purchased from R&D); 20 ng/mL mouse IL-23 (purchased from R&D)) having a 4-fold final concentration; to the negative control well was added 50 μL RMPI-1640 culture medium. The loaded 96-well plate was placed in an incubator at 37° C., 5% CO2 and was cultured for 66 hours, followed by adding to each well 50 uL mixed solution of PMA (purchased from Sigma, working concentration: 50 ng/mL) and Ionomycin (purchased from Sigma, working concentration: 1 ug/mL), and culturing at 37° C. for another 6 hours. After the culture was completed, a cell culture supernatant was taken, and the IL-17A content in the supernatant was determined using mouse IL-17A ELISA kit (purchased from Dakewe), and the inhibition rate and the IC50 value were calculated. The specific operation followed the kit specification (see below):
(1) Determining the number of required strips according to the number of the test wells (blank and standard); taking out the Washing buffer (50×) and the ready-to-use solution from the kit 20 min in advance to balance to room temperature.
(2) Loading samples: adding diluted Cytokine standard to the standard well at 100 μL/well, adding the sample to the sample well at 100 μL/well, setting a blank well, in which Dilution buffer R (1×) was used instead of the sample and the standard.
(3) Adding testing antibody: adding diluted Biotinylated antibody at 50 μL/well; covering with a sealing film after mixing uniformly, and incubating at 37° C. for 90 min.
(4) Washing the plate: deducting the liquid in the well, adding 1× washing buffer at 300 μL/well; maintain for 1 min, then discarding the liquid in the well; repeating 4 times, each time deducting to dryness on filter pater.
(5) Adding enzyme: adding diluted Streptavidin-HRP at 100 μL/well; covering with a sealing film, and incubating at 37° C. for 30 min.
(6) Washing the plate: repeating […].
(7) Color development: adding TMB at 100 μL/well, incubating at 37° C. in a dark place for 5-30 min, and determining to terminate the reaction according to the depth of the color in the well (dark blue). Normally, a good effect can be achieved by color development for 10-20 min.
(8) Terminating the reaction: rapidly adding a stop solution at 100 μL/well to terminate the reaction.
Reading the plate: 10 min after termination, reading the value using a measurement wavelength of 450 nm.

RORγ-LBD = RORγ-LBD (Homo sapiens (Human), UniProt P51449); assay: LanthaScreen TR-FRET screening of RORγ-LBD / co-activator (Fluorescein-D22) interaction; conditions: read-out: IC50 Values; TR-FRET, 2 nM RORγ-LBD, 150 nM Fluorescein-D22 co-activator
RORγ-LBD, sequence (P51449 269-508): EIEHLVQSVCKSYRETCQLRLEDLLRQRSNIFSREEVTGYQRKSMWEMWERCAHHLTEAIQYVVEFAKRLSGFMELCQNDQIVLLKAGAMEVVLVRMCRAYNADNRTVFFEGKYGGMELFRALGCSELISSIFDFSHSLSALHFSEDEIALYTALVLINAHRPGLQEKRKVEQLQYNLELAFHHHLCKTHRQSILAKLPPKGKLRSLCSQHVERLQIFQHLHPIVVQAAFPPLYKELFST

Structure (SMILES) | inhibition at 1 µM (Th17 cells) [%] | pIC50 (RORγ-LBD)
Cc1cccc2c1/C(=C/c1c(Cl)cccc1C1CC1)C(=O)N2c1ccc(C(=O)O)c(O)c1 [Example 1, (trans)-4-(3-(2-chloro-6-cyclopropyl-benzylidene)-4-methylindolin-2-on-1-yl)-2-hydroxy benzoic acid] | > 50 | > 7.00
Cc1cccc2c1/C(=C/c1c(Cl)cccc1C1CC1)C(=O)N2c1ccc(C(=O)O)cc1 [Example 2A, (trans)-4-(3-(2-chloro-6-cyclopropyl-benzylidene)-4-methylindolin-2-on-1-yl)-benzoic acid] | > 50 | > 7.00
COc1cccc(Cl)c1/C=C1\C(=O)N(c2ccc(C(=O)O)c(O)c2)c2cccc(C)c21 [Example 3, (trans)-4-(3-(2-chloro-6-methoxy-benzylidene)-4-methylindolin-2-on-1-yl)-2-hydroxybenzoic acid] | > 50 | > 7.00
Cc1cccc2c1/C(=C/c1c(Cl)cccc1Cl)C(=O)N2c1ccc(C(=O)O)c(O)c1 [Example 4, (trans)-4-(3-(2,6-dichloro-benzylidene)-4-methylindolin-2-on-1-yl)-2-hydroxybenzoic acid] | > 50 | > 7.00
Cc1cccc(Cl)c1/C=C1\C(=O)N(c2ccc(C(=O)O)c(O)c2)c2cccc(C)c21 [Example 10, (trans)-4-(3-(2-chloro-6-methyl-benzylidene)-4-methylindolin-2-on-1-yl)-2-hydroxybenzoic acid] | > 50 | > 7.00
O=C(O)c1ccc(N2C(=O)/C(=C\c3c(Cl)cccc3Cl)c3c(F)cccc32)cc1 [Example 15A, (trans)-4-(3-(2,6-dichloro-benzylidene)-4-fluoro-indolin-2-on-1-yl)-benzoic acid] | > 50 | > 7.00
O=C(O)c1ccc(N2C(=O)/C(=C/c3c(Cl)cccc3Cl)c3c(F)cccc32)cc1 [Example 15B, (cis)-4-(3-(2,6-dichloro-benzylidene)-4-fluoro-indolin-2-on-1-yl)-benzoic acid] | < 50 | > 7.00
O=C(O)c1ccc(N2C(=O)/C(=C/c3c(Cl)cccc3C3CC3)c3c(F)cccc32)cc1 [Example 16B, (cis)-4-(3-(2-chloro-6-cyclopropyl-benzylidene)-4-fluoro-indolin-2-on-1-yl)-benzoic acid] | > 50 | > 7.00
